Measurements published in patent US12220525B2, “Tiotropium formulation and inhaler” (KINDEVA DRUG DELIVERY L.P., priority 2018, dated 2025).

Assay: Delivered dose study (unit spray collection apparatus, USCA)
Assay type: physicochemical
Procedure: Metered dose inhalers (MDIs) were prepared using deep drawn aluminum canisters (3M Corporation, Cltheroe, UK), 50 microliter Bespak PBT (polybutylene terephthalate) valves (BK0514719, Bespak Europe Ltd, Bergen Way, King's Lynn, Norfolk, PE30 2JJ) fitted with EPDM (ethylene-propylene diene terpolymer elastomer) diaphragm seals, and an Mk6 P&B actuator. The internal surface of each canister was coated with FEP (fluorinated ethylene propylene copolymer). The bulk formulation for cold filling individual canisters can be prepared by first admixing citric acid and the ethanol, and then adding the tiotropium bromide to the citric acid and ethanol mixture. HFA-134a propellant was then added to a separate batching vessel, and the mixture of tiotropium bromide, citric acid, and ethanol was then added be to the HFA-134a. The formulation was mixed at −50° C. The metered dose inhalers made according to Table 1 were designed to deliver 5 micrograms of Tiotropium (free base) per actuation.
The start of unit life delivered dose was determined using standard unit spray collection apparatus (USCA) fitted with a filter. For each determination, an MDI was attached to the USCA using a coupler and actuated a single time. Immediately prior to attachment, the MDI was shaken. Prior to collection of the test sample, the MDI was primed by actuating four times. Prior to each priming shot the MDI was shaken.

## C[N+]1(C)[C@@H]2C[C@@H](OC(=O)C(O)(c3cccs3)c3cccs3)C[C@H]1[C@@H]1O[C@@H]12 [tiotropium bromide]
MDI with Table 1 formulation (0.1204 mg/ml tiotropium bromide, 0.04 wt. % citric acid, 15 wt. % ethanol, HFA-134a; FEP can), primed by actuating four times, single actuation, FIG. 5
  Start of life dose content uniformity: 4.3 mcg/actuation
MDI with Table 1 formulation, on storage, FIG. 7
  uniformity of dose delivered on storage: remained constant on storage
